Measured values taken from publication PMC6600263, “Neuroprotective Effects of Red Ginseng Saponins in Scopolamine-Treated Rats and Activity Screening Based on Pharmacokinetics” (Molecules, 2019).
Where two headings read alike, the source gives them in different places.

Assays:
[1] = pharmacokinetics of 16 ginsenosides in rat plasma after oral administration of RGS; format: in vivo; details: for Cmax / MRT / half-life / Tmax / C Max / T1/2 / T Max: SD, rat, po, 100 mg/kg
Protocol: The SD rats were randomly allocated into two groups, i.e., normal group and SA-treated group.
Blood samples were collected from the postocular vein at 0.083, 0.25, 0.5, 1, 2, 3, 4, 6, 8, 12 and 24 h after SA injection. Blood sample immediately was centrifuged at 18,000 rpm for 10 min. Plasma was withdrawn (0.15 mL) and diluted with 0.3 mL of acetonitrile and 20 µL of the IS (6 µg/mL). After 30 min, the mixture was clarified by centrifugation at 18,000 rpm for 10 min at 4 °C. The supernatant was dried under a stream of N2, and the residue was dissolved in 0.1 mL of methanol and stored at −20 °C for further analysis.
The UPLC-MS/MS system (Waters Xeve TQ, Waters, Cork, Ireland) with a column C18 (ACQUITY, 1.7 μm, 2.1 × 50 mm, Waters, Cork, Ireland) were adopted at 35 °C. Water (A) and acetonitrile (B) were used as mobile phases at a flow rate of 0.4 mL/min. The treatment of elution was performed according to following pattern: 10% B for 0–5.0 min; 10→15% B for 5.0–8.0 min; 15→25% B for 8.0–12.0 min; 25→40% for 12.0–20.0 min; 40→50% B for 20.0–25.0 min; 50→65% B for 25.0–30.0 min. With regard to mass detection, the negative mode of electrospray ionization source was adopted. The optimized parameters of multiple reactions monitoring (MRM) system including collision energy, Q1 Pre Bias, Q3 Pre Bias, collision energy and MRM transition of the 16 ginsenosides are shown in Table 1.
Based on a non-compartmental method, WinNonlin software (Phoenix, version 6.1) was employed to calculate the pharmacokinetic parameters. The statistical difference between groups was analyzed by One-Way ANOVA analysis using SPSS Version 17.0. (SPSS Inc., Chicago, IL, USA). The difference between groups was regarded significant when p < 0.05. We first normalized the pharmacokinetic data and then visualized them based on principal component analysis (PCA).

[2] = tested on: scopolamine-induced learning ability impairment; set-up: method as in PMID 24503167; details: rats; cited from earlier work
[3] = plasma, model (scopolamine 1 mg/kg i.p.-treated) rats, oral RGS single dose 100 mg/kg, plasma, mean ± S.D., n = 5, read-out: C Max
[4] = plasma, model (scopolamine 1 mg/kg i.p.-treated) rats, oral RGS single dose 100 mg/kg, plasma, mean ± S.D., n = 5, read-out: MRT
[5] = plasma, model (scopolamine 1 mg/kg i.p.-treated) rats, oral RGS single dose 100 mg/kg, plasma, mean ± S.D., n = 5, read-out: T1/2 (converted)
[6] = plasma, model (scopolamine 1 mg/kg i.p.-treated) rats, oral RGS single dose 100 mg/kg, plasma, mean ± S.D., n = 5, read-out: T Max
[7] = plasma, normal rats, oral RGS single dose 100 mg/kg, plasma, mean ± S.D., n = 5, read-out: C Max
[8] = plasma, normal rats, oral RGS single dose 100 mg/kg, plasma, mean ± S.D., n = 5, read-out: MRT
[9] = plasma, normal rats, oral RGS single dose 100 mg/kg, plasma, mean ± S.D., n = 5, read-out: T1/2 (converted)
[10] = plasma, normal rats, oral RGS single dose 100 mg/kg, plasma, mean ± S.D., n = 5, read-out: T Max
[11] = model (scopolamine 1 mg/kg i.p.-treated) rats, oral RGS single dose 100 mg/kg, plasma, mean ± S.D., n = 5
[12] = normal rats, oral RGS single dose 100 mg/kg, plasma, mean ± S.D., n = 5
[13] = in vivo, model (scopolamine 1 mg/kg i.p.-treated) rats, oral RGS single dose 100 mg/kg, plasma, mean ± S.D., n = 5, read-out: C Max
[14] = in vivo, model (scopolamine 1 mg/kg i.p.-treated) rats, oral RGS single dose 100 mg/kg, plasma, mean ± S.D., n = 5, read-out: MRT
[15] = in vivo, model (scopolamine 1 mg/kg i.p.-treated) rats, oral RGS single dose 100 mg/kg, plasma, mean ± S.D., n = 5, read-out: T1/2 (converted)
[16] = in vivo, model (scopolamine 1 mg/kg i.p.-treated) rats, oral RGS single dose 100 mg/kg, plasma, mean ± S.D., n = 5, read-out: T Max
[17] = in vivo, normal rats, oral RGS single dose 100 mg/kg, plasma, mean ± S.D., n = 5, read-out: C Max
[18] = in vivo, normal rats, oral RGS single dose 100 mg/kg, plasma, mean ± S.D., n = 5, read-out: MRT
[19] = in vivo, normal rats, oral RGS single dose 100 mg/kg, plasma, mean ± S.D., n = 5, read-out: T1/2 (converted)
[20] = in vivo, normal rats, oral RGS single dose 100 mg/kg, plasma, mean ± S.D., n = 5, read-out: T Max

Row | Compound | Cmax [1, 3] | MRT [1, 4] | half-life [1, 5] | Tmax [1, 6] | Cmax [1, 7] | MRT [1, 8] | half-life [1, 9] | Tmax [1, 10] | AUC 0-t [1, 11] | AUC 0-t [1, 12] | C Max ([1]; in vivo) | MRT ([1]; in vivo) | T1/2 ([1]; in vivo) | Cmax ([1]; in vivo, C Max) | MRT ([1]; in vivo, MRT) | half-life ([1]; in vivo, T1/2) | further results
1 | CC(C)=CCCC(C)(OC1OC(CO)C(O)C(O)C1O)C1CCC2(C)C1C(O)CC1C3(C)CCC(O)C(C)(C)C3C(OC3OC(CO)C(O)C(O)C3O)CC12C (centres unmarked) [Rg1] | 32.2 ± 2.1 ng/g | 16.5 ± 3.2 h | 10.2 ± 1.2 h | 4 ± 0.9 h | 20.5 ± 2.5 ng/g | 15.6 ± 2.1 h | 9.6 ± 1.5 h | 4 ± 1.2 h | 664.5 ± 15.2 ng·h/g | 568.9 ± 10.3 ng·h/g |  |  |  |  |  |  | effect on scopolamine-induced learning ability impairment [2]: improves
2 | CC(C)=CCCC(C)(OC1OC(COC2OC(CO)C(O)C2O)C(O)C(O)C1O)C1CCC2(C)C1C(O)CC1C3(C)CCC(OC4OC(CO)C(O)C(O)C4OC4OC(CO)C(O)C(O)C4O)C(C)(C)C3CCC12C (centres unmarked) [Rc] | 21 ± 4.8 ng/g | 8.9 ± 2.2 h | 7.9 ± 3.1 h | 1.5 ± 0.5 h | 19.1 ± 2.9 ng/g | 9.6 ± 1.5 h | 8.9 ± 3.2 h | 1.5 ± 3.2 h | 109.8 ± 10.2 ng·h/g | 102.3 ± 20.2 ng·h/g |  |  |  |  |  |  | 
3 | CC(C)=CCCC(C)(O)C1CCC2(C)C1C(O)CC1C3(C)CCC(O)C(C)(C)C3C(OC3OC(CO)C(O)C(O)C3OC3OC(CO)C(O)C(O)C3O)CC12C (centres unmarked) [Rf] |  |  |  |  |  |  |  |  |  |  | 18.8 ± 2.6 ng/g | 7.4 ± 1.3 h | 7.5 ± 1.5 h | 17.6 ± 5.9 ng/g | 6.5 ± 1.2 h | 6.6 ± 1.2 h | Tmax ([1]; in vivo, T Max): 2 ± 0.6 h
4 | CC(C)=CCCC(C)(O)C1CCC2(C)C1C(O)CC1C3(C)CCC(O)C(C)(C)C3C(OC3OC(CO)C(O)C(O)C3O)CC12C (centres unmarked) [Rh1] |  |  |  |  |  |  |  |  | 278.6 ± 12.8 ng·h/g | 215.5 ± 12.1 ng·h/g |  |  |  |  |  |  | Cmax [1, 13]: 46.9 ± 7.8 ng/g; MRT [1, 14]: 11.2 ± 2 h; half-life [1, 15]: 8.9 ± 2.1 h; Tmax [1, 16]: 1.5 ± 0.3 h; Cmax [1, 17]: 41.2 ± 4.6 ng/g; MRT [1, 18]: 9.6 ± 2.1 h; half-life [1, 19]: 9.8 ± 2.5 h; Tmax [1, 20]: 1 ± 0.5 h
5 | C=C(CCC=C(C)C)C1CCC2(C)C1C(O)CC1C3(C)CCC(OC4OC(CO)C(O)C(O)C4OC4OC(CO)C(O)C(O)C4O)C(C)(C)C3CCC12C (centres unmarked) [Rk1] | 50.1 ± 3.7 ng/g | 26.8 ± 2.5 h | 29.3 ± 2.1 h | 6 ± 0.8 h | 32.1 ± 5.9 ng/g | 21.3 ± 1.8 h | 18.1 ± 9.8 h | 6 ± 0.9 h | 736.8 ± 17.7 ng·h/g | 556.8 ± 13.4 ng·h/g |  |  |  |  |  |  | 
6 | CC(C)=CCCC(C)(OC1OC(CO)C(O)C(O)C1O)C1CCC2(C)C1C(O)CC1C3(C)CCC(OC4OC(CO)C(O)C(O)C4OC4OC(CO)C(O)C(O)C4O)C(C)(C)C3CCC12C (centres unmarked) [Rd] | 45.6 ± 2.9 ng/g | 7.7 ± 1.3 h | 6.2 ± 1.9 h | 2 ± 0.8 h | 47.5 ± 2.6 ng/g | 8.6 ± 1.2 h | 5.5 ± 5.6 h | 1.5 ± 0.4 h | 331.2 ± 11.2 ng·h/g | 321.5 ± 9.1 ng·h/g |  |  |  |  |  |  | effect on scopolamine-induced learning ability impairment [2]: do not
7 | C=C(CCC=C(C)C)C1CCC2(C)C1C(O)CC1C3(C)CCC(O)C(C)(C)C3C(OC3OC(CO)C(O)C(O)C3O)CC12C (centres unmarked) [Rk3] |  |  |  |  |  |  |  |  |  |  | 16.6 ± 2.8 ng/g | 8.9 ± 1.8 h | 6.9 ± 2.1 h | 14.2 ± 3.9 ng/g | 9.6 ± 1.5 h | 6.5 ± 0.9 h | T Max ([1]; in vivo): 1.5 ± 0.5 h; Tmax ([1]; in vivo, T Max): 1 ± 0.2 h
8 | CC(C)=CCC=C(C)C1CCC2(C)C1C(O)CC1C3(C)CCC(O)C(C)(C)C3C(OC3OC(CO)C(O)C(O)C3O)CC12C (centres unmarked) [Rh4] |  |  |  |  |  |  |  |  |  |  | 38.7 ± 4.8 ng/g | 12.3 ± 2.0 h | 9.9 ± 2.1 h | 35.6 ± 3.6 ng/g | 11.2 ± 2.1 h | 8.8 ± 1.5 h | Tmax ([1]; in vivo, T Max): 4 ± 0.5 h
9 | CC(C)=CCCC(C)(OC1OC(COC2OCC(O)C(O)C2O)C(O)C(O)C1O)C1CCC2(C)C1C(O)CC1C3(C)CCC(OC4OC(CO)C(O)C(O)C4OC4OC(CO)C(O)C(O)C4O)C(C)(C)C3CCC12C (centres unmarked) [Rb2] | 17.2 ± 2.1 ng/g | 7.9 ± 1.2 h | 6.9 ± 1.2 h | 1.5 ± 0.2 h | 18.5 ± 2.5 ng/g | 8.6 ± 2.1 h | 6.5 ± 1.5 h | 1.5 ± 0.2 h | 90.3 ± 8.2 ng·h/g | 89.6 ± 9.3 ng·h/g |  |  |  |  |  |  | 
10 | CC(C)=CCC=C(C)C1CCC2(C)C1C(O)CC1C3(C)CCC(OC4OC(CO)C(O)C(O)C4O)C(C)(C)C3CCC12C (centres unmarked) [Rh3] |  |  |  |  |  |  |  |  |  |  | 37.6 ± 4.8 ng/g | 19.8 ± 2.8 h | 13.6 ± 3.1 h | 24.3 ± 3.9 ng/g | 15.6 ± 3.5 h | 12.6 ± 3.2 h | T Max ([1]; in vivo): 10.2 ± 1.5 h; Tmax ([1]; in vivo, T Max): 14.4 ± 1.2 h
11 | CC(C)=CCCC(C)(O)C1CCC2(C)C1C(O)CC1C3(C)CCC(OC4OC(CO)C(O)C(O)C4O)C(C)(C)C3CCC12C (centres unmarked) [Rh2] |  |  |  |  |  |  |  |  | 369.8 ± 8.0 ng·h/g | 356.8 ± 12.8 ng·h/g |  |  |  |  |  |  | Cmax [1, 13]: 30.2 ± 4.8 ng/g; MRT [1, 14]: 11.8 ± 2 h; half-life [1, 15]: 7.6 ± 2.1 h; Tmax [1, 16]: 2 ± 0.3 h; Cmax [1, 17]: 26.9 ± 2.6 ng/g; MRT [1, 18]: 12.3 ± 2.1 h; half-life [1, 19]: 9.8 ± 2.5 h; Tmax [1, 20]: 2 ± 0.5 h
12 | CC(C)=CCCC(C)(O)C1CCC2(C)C1C(O)CC1C3(C)CCC(OC4OC(CO)C(O)C(O)C4OC4OC(CO)C(O)C(O)C4O)C(C)(C)C3CCC12C (centres unmarked) [Rg3] |  |  |  |  |  |  |  |  |  |  | 32.3 ± 4.6 ng/g | 22.5 ± 2.1 h | 19.8 ± 1.5 h | 29.6 ± 5.9 ng/g | 24.3 ± 1.2 h | 21.3 ± 2.2 h | 
13 | CC(C)=CCC=C(C)C1CCC2(C)C1C(O)CC1C3(C)CCC(OC4OC(CO)C(O)C(O)C4OC4OC(CO)C(O)C(O)C4O)C(C)(C)C3CCC12C (centres unmarked) [Rg5] | 37.3 ± 2.8 ng/g | 25.6 ± 2.6 h | 27.3 ± 3.6 h | 8 ± 1.6 h | 34.4 ± 2.6 ng/g | 22.2 ± 1.4 h | 17.1 ± 2.5 h | 4 ± 1.8 h | 569.8 ± 10.2 ng·h/g | 415.6 ± 20.1 ng·h/g |  |  |  |  |  |  | 
14 | CC(C)=CCCC(C)(OC1OC(CO)C(O)C(O)C1O)C1CCC2(C)C1C(O)CC1C3(C)CCC(O)C(C)(C)C3C(OC3OC(CO)C(O)C(O)C3OC3OC(C)C(O)C(O)C3O)CC12C (centres unmarked) [Re] | 24.9 ± 6.9 ng/g | 8.6 ± 1.1 h | 11.3 ± 2.9 h | 0.5 ± 0.1 h | 25.6 ± 2.6 ng/g | 9.6 ± 1.2 h | 12.3 ± 2.6 h | 0.5 ± 0.4 h | 298.6 ± 21.2 ng·h/g | 278.3 ± 9.1 ng·h/g |  |  |  |  |  |  | 
